# Assays:
# Assay type in all cases: in vivo
# [1] = tested on: Euphorbia heterophylla (EPHHL); assay: Ex 4 pre-emergence, visual % damage
# Method: DINAMIC® (amicarbazone) in combination of various herbicides listed in Table 4-1 were tested for herbicidal activity.
# The herbicidal effect was observed by comparing the extent of Euphorbia heterophylla (EPHHL) treated with the compounds against that occurring in similar non-treated control. Herbicidal effect was visually assessed and recorded at 14, 23, 36, 49, 65 and 77 days after treatment (DAT). Damage by the herbicidal compositions was evaluated with reference to a scale of 0% to 100% in comparison with untreated control. 0% means no damage and 100% means complete destruction of the plants.
# The theoretical herbicidal effect index were calculated based on Colby and the values were indicated in bracket ( ) in Table 4-2. Both of the herbicidal mixtures (amicarbazone+Karmex) and (amicarbazone+Sencor) exert a greater herbicidal action than expected according to Colby on the basis of the observed effects of the individual components when used alone. […] The underlined values in the table indicate that the observed weed killing is greater than calculated from the Colby formula and therefore indicates a synergistic weed killing effect or activity.
# [2] = tested on: Poa annua; assay: Ex 5/7 greenhouse spray, bleaching/injury ratings
# Method: (§1) Containers were watered as needed based on species and water usage. The greenhouse was heated to keep temperatures above 50° F. (10° C.) and ventilated as needed to keep temperatures below 100° F. (38° C.). Typical daytime temperatures in the greenhouse were 80-90° F. (27-32° C.) and nighttime temperatures were between 50-60° F. (10-16° C.). The soil employed was Promix BX potting soil. Overall moisture conditions were normal and the closest weather station was on-site. Conditions and equipment employed in this Example are tabulated below in Tables 5-1 and 5-2.
# (§2) All containers were moved outdoors from the greenhouse and arranged in blocks by treatment for the herbicide applications. A single spray application was applied to each block containing four repetitions of each species for each treatment. Plants were then immediately returned to the greenhouse and irrigated with approximately ¼″ water 1-3 hrs after treatment with a hose end sprayer. Only the Poa plants were trimmed with scissors two days prior to treatment at a height of approximately 3 inches.
# Transplanted tillering Kentucky Bluegrass was 5 to 6 months old, transplanted Poa annua was 5 to 6 months old. Tall fescue was seeded into the crabgrass pots. St. Augustine plants (Floratam and Saphire) were shipped from Port St. Lucie, Fla. Only two replicates of Saphire St. Augustine grass were used due to plant availability.
# (§3) Referring to FIGS. 2A-B, 3A-C, 4A-C, and 5A-D, all ratings of injury or bleaching are based on a scale from 1 to 9. […] Any bleaching measurement 4 and above was considered unacceptable for desirable turf species. In injury measurements, 1 indicates no injury while 9 indicates a dead plant. Any injury measurement 4 and above was considered unacceptable for desirable turf species). Density correlates with percent cover where 1 indicates no grass while 9 indicates a full pot.
# (§4) Replications employed include 4, Untreated treatments: 1, Design: Randomized Complete Block, Treatment units: US standard, Treated plot size Width: 4 feet, Treated plot size Length: 4 feet, Application volume: 50 gal/ac, Mix size: 0.5562 liters, Mix overage: 100%, Format definitions: G-All7.DEF, G-All7.FRM.
# (§5) In evaluating synergism, the data from Example 5 above were converted to % of control. This was done based on the data provided on a 1-9 scale detailed in Example 5. Expected values were computed from the % of control data by the formula for expected control=[…], where A is the % of control value for herbicide A alone and B is the % of control value for herbicide B alone.
# [3] = tested on: Mustard (Sinapsis sp.); assay: Ex 5/7 greenhouse spray, bleaching/injury ratings
# Method: as §1, §2, §3, §4, §5
# [4] = rating 1, 0.022 lbs ai/A (0.5 oz/A)
# [5] = rating 1, 0.13 lbs ai/A (3 oz/A)
# [6] = rating 2, 0.022 lbs ai/A (0.5 oz/A)
# [7] = rating 2, 0.13 lbs ai/A (3 oz/A)
# [8] = rating 3, 0.022 lbs ai/A (0.5 oz/A)
# [9] = rating 3, 0.13 lbs ai/A (3 oz/A)
# [10] = rating 4, 0.022 lbs ai/A (0.5 oz/A)
# [11] = rating 4, 0.13 lbs ai/A (3 oz/A)
# [12] = rating 5, 0.022 lbs ai/A (0.5 oz/A)
# [13] = rating 5, 0.13 lbs ai/A (3 oz/A)
# [14] = 6 DA-A, Trt 2/4/6: Amicarbazone 0.0219, Tenacity 0.125 lb ai/a
# [15] = 6 DA-A, Trt 3/5/9: Amicarbazone 0.131, Tenacity 0.25 lb ai/a
# [16] = 7 DA-A, Trt 2/4/6: Amicarbazone 0.0219, Tenacity 0.125 lb ai/a
# [17] = 7 DA-A, Trt 3/5/9: Amicarbazone 0.131, Tenacity 0.25 lb ai/a
compound,measurement,setting,value
"CC(C)c1nn(C(=O)NC(C)(C)C)c(=O)n1N [Amicarbazone, 4-amino-5-isopropyl-2-(tert-butyl-aminocarbonyl)-2,4-dihydro-3H-1,2,4-triazol-3-one]",percentage control,"[1]; 14 DAT, kg/ha or L/ha: Amicarbazone 1.00, Gesapax 3.00, Karmex 3.00, Provence 0.15, Sencor 2.00, alone or Amicarbazone + partner",96%
same,percentage control,"[1]; 14 DAT, kg/ha or L/ha: Amicarbazone 1.50, Gesapax 5.00, Karmex 5.00, Provence 0.20, Sencor 3.50, alone",98%
same,percentage control,"[1]; 23 DAT, kg/ha or L/ha: Amicarbazone 1.00, Gesapax 3.00, Karmex 3.00, Provence 0.15, Sencor 2.00, alone or Amicarbazone + partner",96%
same,percentage control,"[1]; 23 DAT, kg/ha or L/ha: Amicarbazone 1.50, Gesapax 5.00, Karmex 5.00, Provence 0.20, Sencor 3.50, alone",98%
same,percentage control,"[1]; 36 DAT, kg/ha or L/ha: Amicarbazone 1.00, Gesapax 3.00, Karmex 3.00, Provence 0.15, Sencor 2.00, alone or Amicarbazone + partner",96%
same,percentage control,"[1]; 36 DAT, kg/ha or L/ha: Amicarbazone 1.50, Gesapax 5.00, Karmex 5.00, Provence 0.20, Sencor 3.50, alone",96%
same,percentage control,"[1]; 49 DAT, kg/ha or L/ha: Amicarbazone 1.00, Gesapax 3.00, Karmex 3.00, Provence 0.15, Sencor 2.00, alone or Amicarbazone + partner",79%
same,percentage control,"[1]; 49 DAT, kg/ha or L/ha: Amicarbazone 1.50, Gesapax 5.00, Karmex 5.00, Provence 0.20, Sencor 3.50, alone",96%
same,percentage control,"[1]; 65 DAT, kg/ha or L/ha: Amicarbazone 1.00, Gesapax 3.00, Karmex 3.00, Provence 0.15, Sencor 2.00, alone or Amicarbazone + partner",79%
same,percentage control,"[1]; 65 DAT, kg/ha or L/ha: Amicarbazone 1.50, Gesapax 5.00, Karmex 5.00, Provence 0.20, Sencor 3.50, alone",96%
same,percentage control,"[1]; 77 DAT, kg/ha or L/ha: Amicarbazone 1.00, Gesapax 3.00, Karmex 3.00, Provence 0.15, Sencor 2.00, alone or Amicarbazone + partner",75%
same,percentage control,"[1]; 77 DAT, kg/ha or L/ha: Amicarbazone 1.50, Gesapax 5.00, Karmex 5.00, Provence 0.20, Sencor 3.50, alone",90%
same,control of annual bluegrass,"[2]; high rate, by itself",reasonable control
same,Annual bluegrass bleaching,[2]; [4],100 % of control
same,Annual bluegrass injury,[2]; [4],104 % of control
same,Annual bluegrass bleaching,[2]; [5],100 % of control
same,Annual bluegrass injury,[2]; [5],71 % of control
same,Annual bluegrass bleaching,[2]; [6],100 % of control
same,Annual bluegrass injury,[2]; [6],104 % of control
same,Annual bluegrass bleaching,[2]; [7],100 % of control
same,Annual bluegrass injury,[2]; [7],61 % of control
same,Annual bluegrass bleaching,[2]; [8],100 % of control
same,Annual bluegrass injury,[2]; [8],108 % of control
same,Annual bluegrass bleaching,[2]; [9],91 % of control
same,Annual bluegrass injury,[2]; [9],67 % of control
same,Annual bluegrass bleaching,"[2]; rating 4/2, 0.022 lbs ai/A (0.5 oz/A)",100 % of control
same,Annual bluegrass bleaching,"[2]; rating 4/2, 0.13 lbs ai/A (3 oz/A)",88 % of control
same,Annual bluegrass bleaching,[2]; [10],107 % of control
same,Annual bluegrass injury,[2]; [10],96 % of control
same,Annual bluegrass bleaching,[2]; [11],94 % of control
same,Annual bluegrass injury,[2]; [11],53 % of control
same,Annual bluegrass injury,[2]; [12],90 % of control
same,Annual bluegrass injury,[2]; [13],52 % of control
same,Annual bluegrass injury,"[2]; rating 6, 0.022 lbs ai/A (0.5 oz/A)",85 % of control
same,Annual bluegrass injury,"[2]; rating 6, 0.13 lbs ai/A (3 oz/A)",31 % of control
same,Annual bluegrass injury,"[2]; rating 7, 0.022 lbs ai/A (0.5 oz/A)",85 % of control
same,Annual bluegrass injury,"[2]; rating 7, 0.13 lbs ai/A (3 oz/A)",24 % of control
same,Injury (1-9 scale),"[3]; 3 DA-A, Trt 2/4/6: Amicarbazone 0.0219, Tenacity 0.125 lb ai/a",2.8 b
same,Injury (1-9 scale),"[3]; 3 DA-A, Trt 3/5/9: Amicarbazone 0.131, Tenacity 0.25 lb ai/a",6.8 a
same,Bleaching (1-9 scale),[3]; [14],2.0 bc
same,Injury (1-9 scale),[3]; [14],2.8 c
same,Bleaching (1-9 scale),[3]; [15],1.3 c
same,Injury (1-9 scale),[3]; [15],6.5 ab
same,Bleaching (1-9 scale),[3]; [16],2.0 bc
same,Injury (1-9 scale),[3]; [16],4.3 c
same,Bleaching (1-9 scale),[3]; [17],2.0 bc
same,Injury (1-9 scale),[3]; [17],7.0 b
same,Injury (1-9 scale),"[3]; 10 DA-A, Trt 2/4/6: Amicarbazone 0.0219, Tenacity 0.125 lb ai/a",6.0 b
same,Injury (1-9 scale),"[3]; 10 DA-A, Trt 3/5/9: Amicarbazone 0.131, Tenacity 0.25 lb ai/a",8.8 a
same,Injury (1-9 scale),"[3]; 14 DA-A, Trt 2/4/6: Amicarbazone 0.0219, Tenacity 0.125 lb ai/a",5.8 b
same,Injury (1-9 scale),"[3]; 14 DA-A, Trt 3/5/9: Amicarbazone 0.131, Tenacity 0.25 lb ai/a",8.8 a
same,Mustard bleaching,[3]; [4],119 % of control
same,Mustard injury,[3]; [4],78 % of control
same,Mustard bleaching,[3]; [5],132 % of control
same,Mustard injury,[3]; [5],28 % of control
same,Mustard bleaching,[3]; [6],94 % of control
same,Mustard injury,[3]; [6],78 % of control
same,Mustard bleaching,[3]; [7],94 % of control
same,Mustard injury,[3]; [7],31 % of control
same,Mustard injury,[3]; [8],61 % of control
same,Mustard injury,[3]; [9],26 % of control
same,Mustard injury,[3]; [10],39 % of control
same,Mustard injury,[3]; [11],3 % of control
same,Mustard injury,[3]; [12],42 % of control
same,Mustard injury,[3]; [13],3 % of control
